Data reported in US7915238B2, “Immunomodulatory compounds and methods of use thereof” (Eisai R & D Management Co., Ltd., priority 1999, dated 2011).
pEC50: −log10 of the molar value.

System: Human Whole Blood
Assay: Cytokine release in human whole blood (ELISA)
Type: cell-based
Conditions: FIG. 1
Procedure: The most readily available human system to test compound activity on monocytes/macrophages is in whole blood. Various concentrations of compounds of the invention were added as 10× stocks in 50 μl of Ca^++, Mg^++-free Hank's balanced salt solution (HBSS) followed by 50 μl of HBSS into 400 μl of heparinized whole blood obtained from normal volunteers (18-51 years old; 110-230 lb.) into the wells of plastic assay plates, for a total volume of 500 μl/well (final concentration of whole blood was 80%). After a 3-hour incubation with gentle shaking at 37° C. in a 5% CO2 atmosphere, the assay plates were centrifuged at 1000×g for 10 min. at 4° C. and plasma was drawn off and frozen at −80° C. Plasma samples were analyzed for TNF-alpha, IL-10, and IL-12 by ELISA (Genzyme Corp., Cambridge, Mass.). Each assay point was tested in triplicate.
This stimulatory activity can be compared to that of 10 ng/ml endotoxin (or LPS) present in similar incubations in the same assay.

| SMILES | TNF-alpha release from blood-borne cells |
| --- | --- |
| CCCCCCCCCCCCCC(=O)NC(COCC[C@@H](CCCCCCC)OC(=O)CCCCCCCCCCC)COP(=O)([O-])OCCNC(=O)NCCOP(=O)([O-])OCC(COCC[C@@H](CCCCCCC)OC(=O)CCCCCCCCCCC)NC(=O)CCCCCCCCCCCCC.[Na+].[Na+] (stereo partly drawn) [ER 119327] | stimulate blood-borne cells to release TNF-alpha |
| CCCCCC/C=C\CCCC(=O)O[C@H](CCCCCCC)CCOCC(COP(=O)([O-])OCCNC(=O)NCCOP(=O)([O-])OCC(COCC[C@@H](CCCCCCC)OC(=O)CCC/C=C\CCCCCC)NC(=O)CCCCCCCCCCCCC)NC(=O)CCCCCCCCCCCCC.[Na+].[Na+] (stereo partly drawn) [ER 119328] | stimulate blood-borne cells to release TNF-alpha |

Same assay, conditions: TNF-alpha release; compounds tested at 10 μM; compared to 10 ng/ml LPS; 3-hour incubation

| SMILES | TNF-alpha release in whole blood at 10 μM compound (% of 10 ng/ml LPS response) |
| --- | --- |
| CCCCCC/C=C\CCCC(=O)O[C@H](CCCCCCC)CCOCC(COP(=O)([O-])OCCNC(=O)C(Cc1ccc(OCCNC(=O)OC(C)(C)C)cc1)C(=O)NCCOP(=O)([O-])OCC(COCC[C@@H](CCCCCCC)OC(=O)CCC/C=C\CCCCCC)NC(=O)CC(=O)CCCCCCCCCCC)NC(=O)CC(=O)CCCCCCCCCCC.[Na+].[Na+] (stereo partly drawn) [compound 019772] | 69 % of LPS |
| CCCCCCCCCCCC(=O)CC(=O)NC(COCC[C@H](O)CCCCCCC)COP(=O)([O-])OCCNC(=O)NCCOP(=O)([O-])OCC(COCC[C@H](O)CCCCCCC)NC(=O)CC(=O)CCCCCCCCCCC.[Na+].[Na+] (stereo partly drawn) [compound 112043] | 0 % of LPS |
| CCCCCCCCCCCCCCCC(=O)OCC(COP(=O)(O)OCC(O)COP(=O)(O)OCC(COC(=O)CCCCCCCCCCCCCCC)OC(=O)CCCCCCCCCCCCCCC)OC(=O)CCCCCCCCCCCCCCC (stereo not drawn) [compound 112071] | 0 % of LPS |
| CCCCCCC=CCC=CCCCCCCC(=O)OCC(COP(=O)(O)OCC(O)COP(=O)(O)OCC(COC(=O)CCCCCCC=CCC=CCCCCCC)OC(=O)CCCCCCC=CCC=CCCCCCC)OC(=O)CCCCCCC=CCC=CCCCCCC (stereo not drawn) [compound 112072] | 0 % of LPS |
| CCCCCC/C=C\CCCC(=O)O[C@H](CCCCCCC)CCOCC(COP(=O)([O-])OCCNC(=O)NCCOP(=O)([O-])OCC(COCC[C@@H](CCCCCCC)OC(=O)CCC/C=C\CCCCCC)NC(=O)C[C@@H](CCCCCCC)OC(=O)CCC/C=C\CCCCCC)NC(=O)C[C@@H](CCCCCCC)OC(=O)CCC/C=C\CCCCCC.[Na+].[Na+] (stereo partly drawn) [compound 112093] | 0 % of LPS |
| CCCCCC/C=C\CCCC(=O)O[C@H](CCCCCCC)CC(=O)NC(COCC[C@H](O)CCCCCCC)COP(=O)([O-])OCCNC(=O)c1ccccc1C(=O)NCCOP(=O)([O-])OCC(COCC[C@H](O)CCCCCCC)NC(=O)C[C@@H](CCCCCCC)OC(=O)CCC/C=C\CCCCCC.[Na+].[Na+] (stereo partly drawn) [compound 112859] | 0 % of LPS |
| CCCCCC/C=C\CCCC(=O)O[C@H](CCCCCCC)CC(=O)NC(COCC[C@H](O)CCCCCCC)COP(=O)([O-])OCCNC(=O)c1cccc(C(=O)NCCOP(=O)([O-])OCC(COCC[C@H](O)CCCCCCC)NC(=O)C[C@@H](CCCCCCC)OC(=O)CCC/C=C\CCCCCC)c1.[Na+].[Na+] (stereo partly drawn) [compound 112860] | 0 % of LPS |
| CCCCCC/C=C\CCCC(=O)O[C@H](CCCCCCC)CC(=O)NC(COCC[C@H](O)CCCCCCC)COP(=O)([O-])OCCNC(=O)c1ccc(C(=O)NCCOP(=O)([O-])OCC(COCC[C@H](O)CCCCCCC)NC(=O)C[C@@H](CCCCCCC)OC(=O)CCC/C=C\CCCCCC)cc1.[Na+].[Na+] (stereo partly drawn) [compound 112861] | 0 % of LPS |
| CCCCCC/C=C\CCCC(=O)O[C@H](CCCCCCC)CC(=O)NC(COCC[C@H](O)CCCCCCC)COP(=O)([O-])OCCNC(=O)C1OC(C)(C)OC1C(=O)NCCOP(=O)([O-])OCC(COCC[C@H](O)CCCCCCC)NC(=O)C[C@@H](CCCCCCC)OC(=O)CCC/C=C\CCCCCC.[Na+].[Na+] (stereo partly drawn) [compound 113634] | 0 % of LPS |
| CCCCCC/C=C\CCCC(=O)O[C@H](CCCCCCC)CC(=O)NC(COCC[C@H](O)CCCCCCC)COP(=O)([O-])OCCNC(=O)c1cc(O)cc(C(=O)NCCOP(=O)([O-])OCC(COCC[C@H](O)CCCCCCC)NC(=O)C[C@@H](CCCCCCC)OC(=O)CCC/C=C\CCCCCC)c1.[Na+].[Na+] (stereo partly drawn) [compound 113635] | 0 % of LPS |
| CCCCCC/C=C\CCCC(=O)O[C@H](CCCCCCC)CCOCC(COP(=O)([O-])OCCNC(=O)C(Cc1ccc(O)cc1)C(=O)NCCOP(=O)([O-])OCC(COCC[C@@H](CCCCCCC)OC(=O)CCC/C=C\CCCCCC)NC(=O)CC(=O)CCCCCCCCCCC)NC(=O)CC(=O)CCCCCCCCCCC.[Na+].[Na+] (stereo partly drawn) [compound 118023] | 63 % of LPS |
| CCCCCC/C=C\CCCC(=O)O[C@H](CCCCCCC)CCOCC(COP(=O)([O-])OCCNC(=O)CC(=O)NCCOP(=O)([O-])OCC(COCC[C@@H](CCCCCCC)OC(=O)CCC/C=C\CCCCCC)NC(=O)CCCCCCCCCCCCC)NC(=O)CCCCCCCCCCCCC.[Na+].[Na+] (stereo partly drawn) [compound 118989] | 159 % of LPS |
| CCCCCC/C=C\CCCC(=O)O[C@H](CCCCCCC)CCOCC(COP(=O)([O-])OCCNC(=O)CC(=O)NCCOP(=O)([O-])OCC(COCC[C@@H](CCCCCCC)OC(=O)CCC/C=C\CCCCCC)NC(=O)CCCCCCCCCCC)NC(=O)CCCCCCCCCCC.[Na+].[Na+] (stereo partly drawn) [compound 118999] | 105 % of LPS |
| CCCCCC/C=C\CCCC(=O)O[C@H](CCCCCCC)CCOCC(COP(=O)([O-])OCCNC(=O)CC(=O)NCCOP(=O)([O-])OCC(COCC[C@@H](CCCCCCC)OC(=O)CCC/C=C\CCCCCC)NC(=O)CCCCCCCCCCCCCCC)NC(=O)CCCCCCCCCCCCCCC.[Na+].[Na+] (stereo partly drawn) [compound 119000] | 60 % of LPS |
| CCCCCC/C=C\CCCC(=O)O[C@H](CCCCCCC)CCOCC(COP(=O)([O-])OCCNC(=O)CC(=O)NCCOP(=O)([O-])OCC(COCC[C@@H](CCCCCCC)OC(=O)CCC/C=C\CCCCCC)NC(=O)C[C@H](O)CCCCCCCCCCC)NC(=O)C[C@H](O)CCCCCCCCCCC.[Na+].[Na+] (stereo partly drawn) [compound 119001] | 113 % of LPS |

Same assay, conditions: whole blood; vs. % of LPS at 10 ng/ml; read-out: WB ED50 vs LPS@ 10 ng/ml

| SMILES | pEC50 |
| --- | --- |
| CCCCCCCCCCCCCC(=O)NC(COCCC(CCCCCCC)OCCCCCCCCCCCC)COP(=O)(O)OCCCCCCCCOP(=O)(O)OCC(COCCC(CCCCCCC)OCCCCCCCCCCCC)NC(=O)CCCCCCCCCCCCC (mixture of isomers) [compound 804596] | < 5.00 |
| CCCCCCCCCCCCCC(=O)N[C@H](COCC[C@@H](CCCCCCC)OC(=O)CCCCCCCCCCC)COP(=O)(O)OCCNC(=O)NCCOP(=O)(O)OC[C@@H](COCC[C@@H](CCCCCCC)OC(=O)CCCCCCCCCCC)NC(=O)CCCCCCCCCCCCC [ER 804678] | 7.74 |
| CCCCCC/C=C\CCCC(=O)O[C@H](CCCCCCC)CCOCC(COP(=O)([O-])OCCNC(=O)CC(=O)NCCOP(=O)([O-])OCC(COCC[C@@H](CCCCCCC)OC(=O)CCC/C=C\CCCCCC)NC(=O)CCCCCCCCCCCCC)NC(=O)CCCCCCCCCCCCC.[Na+].[Na+] (stereo partly drawn) [compound 118989] | 7.00 |
| CCCCCC/C=C\CCCC(=O)O[C@H](CCCCCCC)CCOCC(COP(=O)([O-])OCCNC(=O)CC(=O)NCCOP(=O)([O-])OCC(COCC[C@@H](CCCCCCC)OC(=O)CCC/C=C\CCCCCC)NC(=O)C[C@H](O)CCCCCCCCCCC)NC(=O)C[C@H](O)CCCCCCCCCCC.[Na+].[Na+] (stereo partly drawn) [compound 119001] | 5.91 |
